Values quoted from earlier work as cited in publication PMC5189927 (Molecular Psychiatry, 2014).
Structures can show the parent of a compound that is named as a salt.

What was measured:
glucocerebrosidase [1] = system: glucocerebrosidase
glucocerebrosidase [2] = conditions: healthy volunteers
α-galactosidase A [3] = conditions: Fabry patients with amenable mutations, phase 3, 12 months of treatment
α-galactosidase A [4] = conditions: healthy volunteers
β-hex A = conditions: phase 1/2, Tay–Sachs and Sandhoff patients

In the case of `OC[C@H]1CNC[C@@H](O)[C@@H]1O` [isofagomine, isofagomine tartrate], the “Glucocerebrosidase levels in peripheral blood mononuclear cells” value (glucocerebrosidase [1]; healthy volunteers (phase 1) and type I Gaucher patients (phase 2)) is given as “significantly increased”, the “Gaucher patients with clinically meaningful end points” value (glucocerebrosidase [1]; phase 2, doses and dosing regimens assessed) is given as 1 of 18 and the “Increase in wild-type glucocerebrosidase levels” value (glucocerebrosidase [2]) is given as “two- to threefold”.

For `OC[C@H]1NC[C@H](O)[C@@H](O)[C@H]1O` [migalastat, deoxygalactonojirimycin hydrochloride], the “Levels of kidney interstitial capillary GL-3” value (α-galactosidase A [3]) is given as “statistically significant reduction” and the “Increase in wild-type α-galactosidase A levels” value (α-galactosidase A [4]) is given as “two- to threefold”.

For `CCc1nc(N)nc(N)c1-c1ccc(Cl)cc1` [pyrimethamine, Pyrimethamine], the Side effects (β-hex A) is listed as “severe side effects” and the “β-hex A levels in patients” value (β-hex A) is listed as “increased β-hex A levels for all eight patients”.
